Columns and labels:
BetX with CbcWV = molecular target: T1, BetX with CbcWV (Pseudomonas aeruginosa, UniProt Q9HZ04); assay: Uptake kinetics, MKH13; conditions: MKH13, pNcbcWV + pTPA3236, SBP BetX, mean (SE), n = 4
T1 sequence (Q9HZ04 26-285): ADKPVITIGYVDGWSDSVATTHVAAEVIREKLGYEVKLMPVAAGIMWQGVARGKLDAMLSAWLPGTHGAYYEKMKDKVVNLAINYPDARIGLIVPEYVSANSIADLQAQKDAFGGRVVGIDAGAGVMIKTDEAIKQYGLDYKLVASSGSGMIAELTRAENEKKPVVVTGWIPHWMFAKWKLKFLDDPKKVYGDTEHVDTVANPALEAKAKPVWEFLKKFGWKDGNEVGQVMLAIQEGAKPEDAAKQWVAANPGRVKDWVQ
T1 sequence (Q9HTI7 1-279 partner): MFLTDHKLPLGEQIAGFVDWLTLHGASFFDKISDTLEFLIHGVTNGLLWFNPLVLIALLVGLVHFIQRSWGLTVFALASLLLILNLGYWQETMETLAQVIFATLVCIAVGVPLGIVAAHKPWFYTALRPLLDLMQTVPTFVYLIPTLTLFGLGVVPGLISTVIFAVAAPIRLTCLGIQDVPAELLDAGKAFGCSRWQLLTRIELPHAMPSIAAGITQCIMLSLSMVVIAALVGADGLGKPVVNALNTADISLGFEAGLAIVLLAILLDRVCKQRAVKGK
T1 sequence (Q9HTI8 1-392 partner): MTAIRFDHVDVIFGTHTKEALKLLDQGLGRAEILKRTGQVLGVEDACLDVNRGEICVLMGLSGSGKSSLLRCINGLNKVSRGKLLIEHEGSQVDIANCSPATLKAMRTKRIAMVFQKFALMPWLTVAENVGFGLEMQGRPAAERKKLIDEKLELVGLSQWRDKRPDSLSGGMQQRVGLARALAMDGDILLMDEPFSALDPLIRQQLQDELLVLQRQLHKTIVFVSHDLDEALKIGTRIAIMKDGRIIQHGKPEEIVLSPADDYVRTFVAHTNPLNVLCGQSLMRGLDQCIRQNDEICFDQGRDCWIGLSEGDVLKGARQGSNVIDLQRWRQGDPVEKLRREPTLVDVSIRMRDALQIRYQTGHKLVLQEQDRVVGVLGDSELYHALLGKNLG

CbcWV-CaiX = CbcWV-CaiX (Pseudomonas aeruginosa, UniProt Q9HTH6); assay: Uptake kinetics, PA5378::tn; conditions: pNcbcWV, SBP CaiXPAO1, mean (SE), n = 4
Chain of CbcWV-CaiX (Q9HTH6 23-312, one chain of several): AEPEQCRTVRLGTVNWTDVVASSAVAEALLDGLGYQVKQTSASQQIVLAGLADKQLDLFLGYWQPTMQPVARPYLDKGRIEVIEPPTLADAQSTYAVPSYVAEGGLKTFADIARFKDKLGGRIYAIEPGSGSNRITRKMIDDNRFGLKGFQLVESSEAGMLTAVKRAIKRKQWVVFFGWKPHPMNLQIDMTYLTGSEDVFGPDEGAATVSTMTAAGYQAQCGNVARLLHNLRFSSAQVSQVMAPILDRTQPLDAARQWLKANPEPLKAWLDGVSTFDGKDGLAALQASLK

SMILES | maximal rate of uptake (Vmax) (BetX with CbcWV) | maximal rate of uptake (Vmax) (BetX with CbcWV; listed as betaine) | maximal rate of uptake (Vmax) (CbcWV-CaiX)
C[N+](C)(C)CC(=O)O [Betaine, glycine betaine] | 4.8 (0.18) nmol min^−1 (mg protein)^−1 | 4.8 nmol min^−1 (mg protein)^−1 | –
C[N+](C)(C)C[C@H](O)CC(=O)[O-] [Carnitine, L-carnitine] | – | – | 3.8 (0.33) nmol min^−1 (mg protein)^−1

Source: PMC5503199 (Molecular microbiology, 2009)
